According to ChEMBL document CHEMBL1126261, “Synthesis and antimuscarinic properties of some N-substituted 5-(aminomethyl)-3,3-diphenyl-2(3H)-furanones” (J Med Chem, 1992):
“And” between values parts separate entries of the source, which are not always exact repeats. Equal entries are not always repeated.

Key:
[1] = biological target: Muscarinic acetylcholine receptor (Homo sapiens) (UniProt P20309+P08173+P11229+P08172+P08912)
[2] = biological target: Muscarinic acetylcholine receptor M3 (Cavia porcellus) (UniProt Q8VH26); details: Urinary bladder
Chain of Muscarinic acetylcholine receptor M3 (Cavia porcellus) (Q8VH26 1-587): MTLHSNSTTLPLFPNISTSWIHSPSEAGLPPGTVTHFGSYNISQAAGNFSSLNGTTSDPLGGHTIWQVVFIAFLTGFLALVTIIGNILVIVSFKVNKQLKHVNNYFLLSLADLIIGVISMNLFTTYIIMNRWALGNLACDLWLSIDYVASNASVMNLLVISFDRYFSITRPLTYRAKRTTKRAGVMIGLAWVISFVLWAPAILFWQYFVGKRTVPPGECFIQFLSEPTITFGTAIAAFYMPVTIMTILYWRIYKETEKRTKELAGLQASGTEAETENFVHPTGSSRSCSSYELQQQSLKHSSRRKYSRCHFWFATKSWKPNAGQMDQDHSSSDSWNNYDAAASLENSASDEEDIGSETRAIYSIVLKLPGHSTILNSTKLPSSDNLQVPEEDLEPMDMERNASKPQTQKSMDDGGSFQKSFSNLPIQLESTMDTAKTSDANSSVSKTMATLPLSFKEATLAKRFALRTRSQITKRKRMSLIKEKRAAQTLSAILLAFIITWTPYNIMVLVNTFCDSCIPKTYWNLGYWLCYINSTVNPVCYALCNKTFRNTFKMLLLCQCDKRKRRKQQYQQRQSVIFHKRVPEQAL
Description: The compound was tested for urinary bladder contraction ability in guinea pig.

[3] = biological target: Muscarinic acetylcholine receptor M3 (Cavia porcellus) (UniProt Q8VH26); details: Urine
Description: Urinary bladder contraction ability in guinea pig by intravenous dose

SMILES	ID50 [1] [mg/kg]	ID50 [2]	ID50 [3] [mg/kg]
CC1CCC[n+]2ccn(CC3CC(c4ccccc4)(c4ccccc4)C(=O)O3)c21 (stereo not given)	0.12	0.045 mg/kg	
CCc1nccn1CC1CC(c2ccccc2)(c2ccccc2)C(=O)O1 (stereo not given)		20 mg/kg and 8.5 mg/kg	
Cc1nccn1CC1CC(c2ccccc2)(c2ccccc2)C(=O)O1 (stereo not given)	29	29 mg/kg	
CCCc1nccn1CC1CC(c2ccccc2)(c2ccccc2)C(=O)O1 (stereo not given)	> 100	12.5 mg/kg	
O=C1OC(Cn2cc[n+]3ccccc23)CC1(c1ccccc1)c1ccccc1 (stereo not given)	8	5.2 mg/kg	
Cc1ccc[n+]2ccn(CC3CC(c4ccccc4)(c4ccccc4)C(=O)O3)c12 (stereo not given)	4.42		1.7
O=C1OC(Cn2cccn2)CC1(c1ccccc1)c1ccccc1 (stereo not given)	3.8	> 10 mg/kg	
CCN(CC)CC1CC(c2ccccc2)(c2ccccc2)C(=O)O1 (stereo not given)	> 100		16.2
C[n+]1ccn(CC2CC(c3ccccc3)(c3ccccc3)C(=O)O2)c1C(C)(C)C (stereo not given)	0.29	0.28 mg/kg	
CCCc1n(CC2CC(c3ccccc3)(c3ccccc3)C(=O)O2)cc[n+]1C (stereo not given)	0.54	0.9 mg/kg	
O=C1OC(Cn2cc[n+]3c2CCC3)CC1(c1ccccc1)c1ccccc1 (stereo not given)	5.5	2.1 mg/kg	
CN(C)CC1CC(c2ccccc2)(c2ccccc2)C(=O)O1 (stereo not given)	61.6		> 10
CC(C)(C)c1nccn1CC1CC(c2ccccc2)(c2ccccc2)C(=O)O1 (stereo not given)	0.74	1.3 mg/kg	
C[N+](C)(C)CC1CC(c2ccccc2)(c2ccccc2)C(=O)O1 (stereo not given)	4.6		0.64
CCc1nccn1C[C@H]1CC(c2ccccc2)(c2ccccc2)C(=O)O1	5.3		1.3
CCc1n(CC2CC(c3ccccc3)(c3ccccc3)C(=O)O2)cc[n+]1C (stereo not given)	0.67		0.27
CC(C)c1nccn1C[C@H]1CC(c2ccccc2)(c2ccccc2)C(=O)O1	167	1.9 mg/kg	
CN1[C@@H]2CC[C@H]1C[C@@H](OC(=O)C(CO)c1ccccc1)C2 (stereo not given in full)		0.15 mg/kg	
CC(C)c1nccn1CC1CC(c2ccccc2)(c2ccccc2)C(=O)O1 (stereo in doubt; 44)	> 100	30 mg/kg	
CC(C)c1nccn1CC1CC(c2ccccc2)(c2ccccc2)C(=O)O1 (stereo in doubt; 22)	152	3.6 mg/kg	
CC(C)c1n(CC2CC(c3ccccc3)(c3ccccc3)C(=O)O2)cc[n+]1C (stereo not given)	0.02		0.03
